Measurements as given in article PMC6326523, “A high-throughput screen to identify novel small molecule inhibitors of the Werner Syndrome Helicase-Nuclease (WRN)” (PLoS ONE, 2019).

Legend:
HeLa 1.2.11 cells = experiment: HeLa cell proliferation assay (WST-1); format: cell-based, human; conditions: 50 μM, 3-day time course
Description: WRN inhibitors were diluted in DMSO to a concentration 100-fold higher than their final concentrations. U2-OS cells in culture were counted, spun down and resuspended to 35,000 cells/mL in DMEM with 10% FBS and Pen/Strep antibiotic. For each cell condition, 15 μL of DMSO or inhibitor was added to 1.5 ml of U2-OS cells in DMEM or DMEM alone. One hundred μL of each cell condition was plated in triplicate on each of four 96-well plates representing days 0–3. Ten μL of WST-1 cell proliferation reagent (Roche) was added to the day 0 plate and readings were taken 2 hr later using a plate reader set to 450 nm. WST-1 cell proliferation reagent was added to plates on days 1–3 and readings were taken after 2 hr incubation. Percent cell proliferation was normalized to cells in the presence of DMSO with the background OD450 of DMEM with each drug subtracted out. […]
Fig 9 Effects of WRN helicase inhibitors on cancer cell proliferation. (A) Cell proliferation of HeLa 1.2.11 cells treated with 50 μM NCGC00029283-03, NCGC00063279-03, NCGC00357377-01 and NSC 617145 (positive control) or vehicle (DMSO) on Day 0 and Day 3 as measured using the WST-1 cell proliferation reagent. […]

[1] = target: T1, GST-WRN500-946 helicase domain fragment (Homo sapiens, UniProt Q14191); experiment: High-throughput fluorometric helicase screen, PubChem AID 651768; format: biochemical; conditions: initial qHTS; 20 nM GST-WRN500-946; 100 nM FORKF; NA = Not Active; read-out: IC50 (μM) Assay ID 651768
T1 construct: made in house; host or cells: insect cells
T1 sequence (Q14191 500-946): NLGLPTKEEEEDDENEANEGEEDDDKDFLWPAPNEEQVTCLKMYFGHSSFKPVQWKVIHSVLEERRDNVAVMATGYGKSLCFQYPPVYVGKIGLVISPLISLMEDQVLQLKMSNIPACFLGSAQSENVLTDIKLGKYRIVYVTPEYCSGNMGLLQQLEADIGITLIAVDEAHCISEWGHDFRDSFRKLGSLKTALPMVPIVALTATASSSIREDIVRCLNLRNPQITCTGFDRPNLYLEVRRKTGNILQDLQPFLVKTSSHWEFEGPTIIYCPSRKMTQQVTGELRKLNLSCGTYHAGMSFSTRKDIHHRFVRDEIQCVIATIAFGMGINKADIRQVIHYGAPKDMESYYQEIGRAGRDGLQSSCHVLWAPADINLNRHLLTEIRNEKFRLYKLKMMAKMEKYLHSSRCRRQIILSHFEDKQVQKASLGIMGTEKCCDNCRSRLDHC
Description: (§1) The structures of the members of this collection are available in the PubChem portal https://pubchem.ncbi.nlm.nih.gov/. For both the 350,000 small molecule collection and the LOPAC^1280 screens, 3 μL of GST-WRN500-946 or reaction buffer only were dispensed using a solenoid-valve nanoliter dispenser into a black 1536-well plate (Greiner). Twenty three nL of each serially diluted compound (0.08–50 μM for the LOPAC screen and 0.003–114 μM for the larger library screen) or control were added to each well using a Kalypsys pintool equipped with a 1536-pin array. Plates were incubated at room temperature for 15 min, followed by initiation of the reactions via the addition of 1 μL of substrate (100 nM FORKF and 2 mM ATP final concentrations). Plates were transferred to a ViewLux high-throughput CCD imager and fluorescence was measured in kinetic mode using an excitation filter of 525 nm and emission filter of 598 nm.
(§2) Zʹ factor, a measure for assay quality control was calculated using the formula Z′ = 1−(3σS^++3σS^−)∕|μS^+−μS^−| as described previously. In this formula, 3σS^+ represents 3 standard deviations from the mean of positive signals while 3σS^− represents 3 standard deviations from the mean of negative signals. μS^+ and μS^− represent the mean of positive signals and negative signals respectively. Percent activity was derived using in-house software (http://tripod.nih.gov/curvefit/). Dose-response curves were classified as described previously.
(§3) A collection of approximately 350,000 compounds is available for screening which has been assembled from multiple sources to provide diverse chemical scaffolds with known purity, identity and solubility. To perform the high-throughput screen of these compounds, we needed to produce approximately 50 milligrams of recombinant WRN helicase fragment. To accomplish this, we cloned the helicase domain fragment into several plasmids for either insect cell or bacterial expression to optimize expression and yield. We selected expression plasmids for insect cell expression with either a GST or MBP tag (image A in S1 Fig) and purified the protein (image B in S1 Fig). The GST-WRN500-946 fragment isolated from insect cells was used in the high throughput screen with the conditions described in Fig 2C (20 nM GST-WRN500-946, 100 nM FORKF DNA substrate) and a summary of the results can be found on PubChem (National Center for Biotechnology Information. PubChem BioAssay Database; Assay Identifier (AID) = 651768, https://pubchem.ncbi.nlm.nih.gov/bioassay/651768). […] To verify the active compounds, approximately 600 hit molecules were retested in a confirmatory screen also found on PubChem (National Center for Biotechnology Information. PubChem AID = 720497, https://pubchem.ncbi.nlm.nih.gov/bioassay/720497). Of these, a little less than four hundred compounds were confirmed as active compounds.

[2] = target: T1, GST-WRN500-946 helicase domain fragment; experiment: Confirmatory fluorometric helicase screen, PubChem AID 720497; format: biochemical; conditions: 20 nM GST-WRN500-946, 100 nM FORKF, NA = Not Active, read-out: IC50 (μM) Assay ID 720497
Description: as §1, §2, §3

polymerases = test system: polymerases; set-up: method as in PubChem; conditions: review of PubChem data from previously-conducted screens; ref PubChem; cited from earlier work
BLM helicase fragment = test system: BLM helicase fragment; set-up: method as in PubChem; conditions: review of PubChem data from previously-conducted screens; ref PubChem; cited from earlier work
[3] = test system: Hematopoietic Protein Tyrosine Phosphatase (HePTP); set-up: method as in PMID 22070201; conditions: separate high-throughput screen; cited from earlier work

SMILES | Effect on HeLa 1.2.11 cell proliferation (HeLa 1.2.11 cells) | IC50 [1] [µM] | IC50 [2] [µM] | Activity against polymerases in high-throughput screens (polymerases) | Activity against BLM helicase fragment in high-throughput screens (BLM helicase fragment) | Inhibition of HePTP [3]
Cc1ccc(-c2csc(NS(=O)(=O)c3cccc(F)c3)n2)o1 [MLS002251300-02] | did not reduce cell proliferation | 31.6 | 24.1 | – | – | –
COc1ccc2nc(O)c(-c3noc(-c4ccccc4)n3)cc2c1 [NCGC00063279-02] | – | 21.5 | 21.5 | some activity | no activity | inhibited
COc1ccc2nc(O)c(-c3noc(-c4ccc(F)cc4)n3)cc2c1 [NCGC00029283-02] | – | 50 | – | some activity | no activity | inhibited
